Assay [1] concerns L3.6pl cells. Put plainly: Human orthotopic model of pancreatic cancer, L3.6pl cells in nude mice. The class given is in vivo. The procedure: In the case of the human orthotopic model, L3.6pl pancreatic carcinoma cells (passage 24-26) were suspended in Hank's balanced salt solution (Invitrogen, Karlsruhe, Germany) after trypsinization. The cells were injected orthotopically in the pancreas of male nude mice as described (Bruns C J et al. (1999) Neoplasia 1(1):50-62). Two groups of 15 mice each were injected i.p. 7 days later with either the human v6 peptide respectively rat control peptide (20 μg). For all experiments described and depicted herein either the rat 14mer control peptide or the human 14mer peptide were used. All experiments were then repeated with the rat 5mer control peptide or the human 5mer peptide (N-R-W-H-E, SEQ ID NO: 2). […] The injection was repeated three times per week for 21 days. Two days after the last treatment the animals were killed. […]
A comparison of different CD44v6 peptide derivatives was performed in animals bearing a orthotopic L3.6pl tumor. 10 groups of 5 animals each received a dose of 20 μg peptide per injection three times per week for 3 weeks with the compounds listed in Table 4. Three weeks after starting the treatment the animals were sacrificed and analyzed for macroscopic metastases and tumor volume.

In the next assay the test system is HUVEC. Put plainly: Angiogenic response of HUVECs to angiogenic Langerhans islets. The class given is cell-based, human. As to conditions: HUVEC/collagen co-culture with islets, 5 to 7 days. Here is the method:
FIG. 20: The response of HUVECs to a mixture of angiogenic factors produced by angiogenic Langerhans islets can be reduced by CD44v6 specific inhibitors. HUVEC cells were mixed with CD44v6 antibody, CD44v6 peptide or control peptide and then suspended in a collagen gel. Hyperplastic angiogenic Langerhans islets isolated from the pancreas of 8-9 week old RIP1Tag2 mice were placed on top of the HUVEC/collagen mixture and overlaid with medium. Every third day new antibody or peptide was added and pictures were taken after 5 to 7 days. The number of islets that induced an angiogenic response of the ECs is given as percentage of all analysed islets. For quantification 60 islets per condition were analysed. Both the CD44v6 antibody and the CD44v6 peptide (human v6 14mer) reduced the angiogenic response, and the reduction obtained with the antibody is significant (p<0.05).
Langerhans islets are able to stimulate an angiogenic response when co-cultured with HUVEC cells in a collagen matrix. Such angiogenic hyperplastic islets of Langerhans were isolated by collagenase perfusion. They produce a mixture of angiogenic factors and thereby attract the ECs to get organised in capillary like structures. […] In agreement with published data around 60% of islets stimulated an angiogenic response in the control experiment (FIG. 20).

The next assay deals with BSp73ASs6 cells. Put plainly: Apoptosis in established lung metastases (cleaved Caspase-3, cleaved Caspase-8), BSp73ASs6 rat model. As to conditions: cleaved caspase-8 staining. The class given is in vivo. The procedure: 7 μm thick paraffin sections were deparaffinized and rehydrated. For P-Met staining antigen unmasking was achieved by boiling the slides in 1 mM EDTA pH 8.0 followed by incubation for 15 minutes at a sub-boiling temperature, for CD31 staining the sections were treated with Proteinase K (8 μg/ml) for 10 min at 37° C. For immunofluorescence staining of P-Met, unspecific binding was blocked with 5% goat serum (DAKO, Glostrup, Denmark) (diluted in 1×PBS/0.3% Triton X-100) for 60 minutes. In the case of immunohistochemistry, endogenous peroxidases were at first blocked with 3% H2O2 in PBS followed by incubation with biotin blocking system (Dako, Glostrup, Denmark) and then unspecific binding was inhibited by incubation with 5% FCS in PBS. The sections were incubated with the P-Met antibody (D26, dilution 1:50 in 1×PBS/1% BSA/0.3% Triton X-100), Met antibody (C-28, dilution 1:50), GFP antibody (sc-101525, dilution 1:50) or CD31 antibody (5 μg/ml) over night or VFF18 (5 μg/ml) o/n at 4° C. After washing in PBS the sections were incubated with Alexa Fluor R 546 goat anti-rabbit (in case of immunofluorescence P-Met and Met staining, dilution 1:500) or a biotinylated secondary antibody (for immunohistochemical stainings rabbit anti-rat antibody for VFF18 and CD31, goat anti-rabbit for P-Met, cleaved Caspase-3 and cleaved Caspase-8 and rabbit anti-mouse for GFP, dilution 1:500) for 45 minutes. For DAB (3,3′-diaminobenzidine) staining the sections were treated with a streptavidin-peroxidase conjugate (Dako, Glostrup, Denmark) and developed with DAB substrate system (3,3′-diaminobenzidine; Biozol, Eching, Germany). For immunofluorescence DAPI was used for nuclear staining.
One hypothesis for the disappearance of metastases is that the peptides induce apoptosis of CD44v6-expressing metastatic cells in the secondary organs. In order to test this hypothesis, the experiment described above using the BSp73ASs6 cells was repeated. The cells were injected subcutaneously in syngeneic rats and the tumor was allowed to develop for three weeks. After that time the animals were separated in two groups of 10 animals that were injected either with the specific rat CD44v6 peptide or with the control peptide (mouse) every second day. One day following each injection of the peptide, the lungs of one animal were removed and apoptosis was measured using an antibody that detects the cleaved form of Caspase 3. […] Twelve days after injection of the CD44v6 peptide, less apoptosis was observed. […] From these experiments, it is concluded that the CD44v6 peptide induces apoptosis of metastatic cells.

The test system of assay [2] is L3.6pl cells. Put plainly: Regression of established metastases, L3.6pl orthotopic mouse model. The conditions noted are these: treatment started three weeks after implantation; human v6 peptide or rat control peptide 20 μg i.p. The class given is in vivo, nude mice. Here is the method: In order to examine the regression of metastases (either BSp73ASs6 or L3.6pl) were implanted as described above. Tumor growth was allowed for three weeks. At that time all animals had developed metastases in the control group. Animals were injected i.p. with 20 μg (L3.6pl orthotopic mouse model: human v6 peptide or rat control peptide) or i.v. with 200 μg (rat syngeneic model: rat v6 peptide or mouse control peptide) of peptides three times per week. Animals were killed 23 days after the start of the peptide treatment.
The specific binding of the CD44v6 peptides to specific areas of the lungs in the rat system and of the liver in the human model raises the question whether these peptides might have an effect on already established metastases. In the experiments described in FIGS. 2 and 4 the peptides were applied early after injection of the tumor cells and repressed completely the establishment of metastases. In order to measure the effect of the CD44v6 peptide on already established metastases, other experimental settings were used. […] At the end of the experiments metastases could be detected in all animals treated with the control peptide (Table 3, FIG. 6B for the BSp73ASs6 cells, Table 3, FIG. 6C for L3.6pl cells) whereas animals treated with the species-specific CD44v6 peptides were free of metastasis. […]

[3] abbreviates: 20 μg i.p. three times per week for three weeks, start 7 days after implantation.

The text below walks through data of patent US9593146B2, “CD44v6-derived peptides for treating metastasizing cancer” (AMCURE GMBH, priority 2012, dated 2017).

With “KEQWFGNRWHEGYR [human 14mer, human CD44v6 14mer peptide]”, the “metastatic spreading at 10 μg” value in the assay with L3.6pl cells [1] (10 μg per injection, three times per week for 3 weeks) was “complete inhibition of metastatic spreading”. The “tumor angiogenesis (vessel number and vessel size, CD31)” value in the assay on L3.6pl cells [1] (20 μg i.p. three times per week for three weeks) is “decreased angiogenesis”. In addition, the “Met activation in the tumor (phospho-Met immunofluorescence)” value in the assay with L3.6pl cells [1] (setting [3]) was “completely repressed Met activation”. In addition, the “outgrowth of the primary tumor in the pancreas” value with L3.6pl cells [1] (setting [3]) was “strongly repressed”. Besides, the “metastasis formation (liver)” value was “capable of inhibiting metastasis” with L3.6pl cells [1] (20 μg i.p. three times per week for three weeks, start 7 days after implantation, listed as SEQ ID No.: 6) and “completely inhibited metastasis formation within the liver” in the assay with L3.6pl cells [1] (20 μg i.p. three times per week for three weeks, start 7 days after implantation, listed as human-specific peptide). In addition, the “reduction of tumor size, ranking (side-by-side comparison)” value in the assay with L3.6pl cells [1] (20 μg per injection three times per week for 3 weeks (FIG. 23A)) is recorded as “strongest reduction of tumor size”. Also, the “variability in the individual tumor size within the group” value with L3.6pl cells [1] (20 μg per injection three times per week for 3 weeks (FIG. 23B)) is “low variability”. Moreover, the “metastatic spreading to the liver (side-by-side comparison)” value with L3.6pl cells [1] (20 μg per injection three times per week for 3 weeks (FIG. 24)) is reported as “complete inhibition of metastasis”. Besides, in the assay on L3.6pl cells [1] (20 μg per injection three times per week for 3 weeks, 5 animals per group), the “tumor growth compared to the control peptide (side-by-side comparison)” value is recorded as “significant reduction in tumor growth”. The “liver metastases at 0.2 and 2 μg” value with L3.6pl cells [1] (0.2 and 2 μg per injection, three times per week for 3 weeks) is given as “showed liver metastases but the average number of metastases per animal was reduced”. In addition, the “size / growth of the primary tumor (dose reduction study)” value in the assay on L3.6pl cells [1] (three injections per week for 3 weeks, compared to control groups (FIG. 22C)) is “significant decrease of the size of the primary tumor”. Further, the “angiogenic response of the ECs” value with HUVEC is recorded as “reduced”. Also, in the assay with BSp73ASs6 cells, the “activation of caspase-8 in lung metastases” value is “A kinetic of activation of caspase-8 similar to the one obtained for caspase-3”. Also, the “presence of already established (liver) metastases after treatment” value in the assay on L3.6pl cells [2] is “eliminate already established metastases”.
